What was measured:
Assay type in all cases: cell-based
KARPAS 422 = experiment: Cell growth inhibition test, KARPAS 422; settings: Homo sapiens, 72 h; KARPAS 422, Lymphoma, 3 days, CellTiter-Glo
Procedure: (§1) A cell growth inhibition test was carried out by treating a cultured cancer cell line with a test compound for a given period and then counting the number of viable cells by CellTiter-Glo Luminescent Cell Viability Assay (manufactured by Promega Corp.).
(§2) The following cells were inoculated to a 384-well plate containing the compound prepared in advance at predetermined concentrations. […]
(§3) The cells thus inoculated were cultured at 37° C. for 3 days under 5% CO2. […] Then, luminescence intensity was measured using a plate reader.
(§4) The number of viable cells and luminescence intensity have been confirmed to correlate with each other. Therefore, the rate of cell growth was calculated according to the following expression: Rate of cell growth (T/C %) of a test compound-supplemented well=100×[(B−C)/(A−C)] wherein A represents the luminescence intensity (final culture date) of a test compound-free well; B represents the luminescence intensity (final culture date) of a test compound-containing well; and C represents the luminescence intensity (day of cell inoculation) of a well at the start of contact of the cells with the test compound.
(§5) T/C % at the concentration of each of the serially diluted test compounds was determined. […]

HCT 116 = experiment: Cell growth inhibition test, HCT 116; settings: Homo sapiens, 72 h; HCT 116, Large intestine cancer, 3 days, CellTiter-Glo
Procedure: as §1, §2, §3, §4, §5

SW948 = experiment: Cell growth inhibition test, SW948; settings: Homo sapiens, 72 h; SW948, Large intestine cancer, 3 days, CellTiter-Glo
Procedure: as §1, §2, §3, §4, §5

RKO = experiment: Cell growth inhibition test, RKO; settings: Homo sapiens, 72 h, Large intestine cancer, 3 days, CellTiter-Glo
Procedure: as §1, §2, §3, §4, §5

HCT-15 = experiment: Cell growth inhibition test, HCT-15; settings: Homo sapiens, 72 h; HCT-15, Large intestine cancer, 3 days, CellTiter-Glo
Procedure: as §1, §2, §3, §4, §5

OVCAR-5 = experiment: Cell growth inhibition test, OVCAR-5; settings: Homo sapiens, 72 h; OVCAR-5, Ovary cancer, 3 days, CellTiter-Glo
Procedure: as §1, §2, §3, §4, §5

DOHH-2 = experiment: Cell growth inhibition test, DOHH-2; settings: Homo sapiens, 72 h; DOHH-2, Lymphoma, 3 days, CellTiter-Glo
Procedure: as §1, §2, §3, §4, §5

D283 Med = experiment: Cell growth inhibition test, D283 Med; settings: Homo sapiens, 72 h, Brain tumor Central Nerve System, 3 days, CellTiter-Glo
Procedure: as §1, §2, §3, §4, §5

MKN45 = experiment: Cell growth inhibition test, MKN45; settings: Homo sapiens, MKN-45, 72 h; MKN45, Stomach cancer, 3 days, CellTiter-Glo
Procedure: as §1, §2, §3, §4, §5

BT-20 = experiment: Cell growth inhibition test, BT-20; settings: Homo sapiens, 72 h; BT-20, Breast cancer, 3 days, CellTiter-Glo
Procedure: as §1, §2, §3, §4, §5

AN3CA = experiment: Cell growth inhibition test, AN3CA; settings: Homo sapiens, AN3-CA, 72 h, Endometrial cancer, 3 days, CellTiter-Glo
Procedure: as §1, §2, §3, §4, §5

NALM-6 = experiment: Cell growth inhibition test, NALM-6; settings: Homo sapiens, 72 h; NALM-6, Leukemia, 3 days, CellTiter-Glo
Procedure: as §1, §2, §3, §4, §5

A375 = experiment: Cell growth inhibition test, A375; settings: Homo sapiens, A-375, 72 h; A375, Skin cancer, 3 days, CellTiter-Glo
Procedure: as §1, §2, §3, §4, §5

HT-29 = experiment: Cell growth inhibition test, HT-29; settings: Homo sapiens, 72 h; HT-29, Large intestine cancer, 3 days, CellTiter-Glo
Procedure: as §1, §2, §3, §4, §5

ES-2 = experiment: Cell growth inhibition test, ES-2; settings: Homo sapiens, 72 h; ES-2, Ovary cancer, 3 days, CellTiter-Glo
Procedure: as §1, §2, §3, §4, §5

MDA-MB-468 = experiment: Cell growth inhibition test, MDA-MB-468; settings: Homo sapiens, 72 h; MDA-MB-468, Breast cancer, 3 days, CellTiter-Glo
Procedure: as §1, §2, §3, §4, §5

MDA-MB-231 = experiment: Cell growth inhibition test, MDA-MB-231; settings: Homo sapiens, 72 h; MDA-MB-231, Breast cancer, 3 days, CellTiter-Glo
Procedure: as §1, §2, §3, §4, §5

HUH-7 = experiment: Cell growth inhibition test, HUH-7; settings: Homo sapiens, 72 h; HUH-7, Liver cancer, 3 days, CellTiter-Glo
Procedure: as §1, §2, §3, §4, §5

PANC-1 = experiment: Cell growth inhibition test, PANC-1; settings: Homo sapiens, 72 h; PANC-1, Pancreatic cancer, 3 days, CellTiter-Glo
Procedure: as §1, §2, §3, §4, §5

For `CCOc1ccc(Cl)cc1C(=O)NCC(C)(C)CC(=O)Nc1c([C@H](C)CN(C)C)n(C)n(-c2ccccc2)c1=O` [Example 68, 5-Chloro-N-[4-({5-[(1R)-2-(dimethylamino)-1-methylethyl]-1-methyl-3-oxo-2-phenyl-2,3-dihydro-1H-pyrazol-4-yl}amino)-2,2-dimethyl-4-oxobutyl]-2-ethoxybenzamide], the GI50 (KARPAS 422) was 200 nM, the GI50 (HCT 116) was 180 nM and the GI50 (SW948) was 3900 nM. The GI50 (RKO) was 240 nM, the GI50 (HCT-15) was 2700 nM and the GI50 (OVCAR-5) was 540 nM. The GI50 (DOHH-2) was 240 nM, the GI50 (D283 Med) was 130 nM and the GI50 (MKN45) was 480 nM. The GI50 (BT-20) was 590 nM, the GI50 (AN3CA) was 740 nM and the GI50 (NALM-6) was 130 nM. The GI50 (A375) was 280 nM, the GI50 (HT-29) was 510 nM and the GI50 (ES-2) was 480 nM. The GI50 (MDA-MB-468) was 170 nM, the GI50 (MDA-MB-231) was 350 nM and the GI50 (HUH-7) was 670 nM. The GI50 (PANC-1) was 900 nM.

With `CCOc1cc(F)c(Cl)cc1C(=O)NCC(C)(C)CC(=O)Nc1c(COC)n(C)n(-c2ccccc2)c1=O` [Example 113, 5-Chloro-2-ethoxy-4-fluoro-N-(4-{[5-(methoxymethyl)-1-methyl-3-oxo-2-phenyl-2,3-dihydro-1H-pyrazol-4-yl]amino}-2,2-dimethyl-4-oxobutyl)benzamide] the GI50 (KARPAS 422) was 450 nM, the GI50 (HCT 116) was 230 nM and the GI50 (SW948) was 1400 nM. The GI50 (RKO) was 310 nM, the GI50 (HCT-15) was 800 nM and the GI50 (OVCAR-5) was 570 nM. It also gave a GI50 (DOHH-2) of 460 nM, a GI50 (D283 Med) of 230 nM and a GI50 (MKN45) of 1000 nM. The GI50 (BT-20) was 850 nM, the GI50 (AN3CA) was 1400 nM and the GI50 (NALM-6) was 270 nM. The GI50 (A375) was 260 nM, the GI50 (HT-29) was 920 nM and the GI50 (ES-2) was 750 nM. The GI50 (MDA-MB-468) was 320 nM, the GI50 (MDA-MB-231) was 770 nM and the GI50 (HUH-7) was 360 nM. For the same compound, the GI50 (PANC-1) was 1200 nM.

Compound `CCOc1ncc(Cl)cc1C(=O)NCC(C)(C)CC(=O)Nc1c([C@H](C)CN(C)C)n(C)n(-c2ccccc2)c1=O` [Example 73, 5-Chloro-N-[4-({5-[(1R)-2-(dimethylamino)-1-methylethyl]-1-methyl-3-oxo-2-phenyl-2,3-dihydro-1H-pyrazol-4-yl}amino)-2,2-dimethyl-4-oxobutyl]-2-ethoxypyridine-3-carboxamide] has a GI50 (KARPAS 422) of 350 nM, a GI50 (HCT 116) of 460 nM and a GI50 (SW948) of 4200 nM. For the same compound, the GI50 (RKO) was 570 nM, the GI50 (HCT-15) was 4000 nM and the GI50 (OVCAR-5) was 750 nM. The GI50 (DOHH-2) was 630 nM, the GI50 (D283 Med) was 310 nM and the GI50 (MKN45) was 1100 nM. It also gave a GI50 (BT-20) of 1300 nM, a GI50 (AN3CA) of 2200 nM and a GI50 (NALM-6) of 330 nM. The GI50 (A375) was 560 nM, the GI50 (HT-29) was 1200 nM and the GI50 (ES-2) was 900 nM. For the same compound, the GI50 (MDA-MB-468) was 510 nM, the GI50 (MDA-MB-231) was 890 nM and the GI50 (HUH-7) was 900 nM. It also gave a GI50 (PANC-1) of 2000 nM.

Reference: patent US20170107207A1, “AMINOPYRAZOLONE DERIVATIVE” (DAIICHI SANKYO COMPANY, LIMITED, priority 2014, published 2017)
